Columns and labels:
[1] = Impact of desiccant and packaging configuration on tablet stability (Tables 24A-24C); type: physicochemical; settings: for I/D (%) / LS (%): tablets;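 for all read-outs here: stability of tablets stored with different desiccant amounts and packaging configurations, evaluating physical and chemical stability plus dissolution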
[2] = Stress studies: stability of tablets made with stressed VEL SSD/VOX SSD (water, residual solvent, peroxide, reprocessing, potency; Tables 16-21); type: physicochemical; settings: for LS / Total Imp./Deg.: SSD water content study
Protocol: The impact of the following stressors on the physical and chemical stability of the sofosbuvir/velpatasvir SSD/voxilaprevir SSD tablets were evaluated:
(i) Voxilaprevir SSD and velpatasvir SSD, and sofosbuvir/velpatasvir SSD/voxilaprevir SSD tablet water content;
(ii) Copovidone peroxide content in velpatasvir SSD and in voxilaprevir SSD (iii) Reprocessed velpatasvir SSD and voxilaprevir SSD;
(iv) Voxilaprevir SSD and velpatasvir SSD potency (varying the ratio of velpatasvir or voxilaprevir to copovidone); and
(v) Seeding sofosbuvir/velpatasvir SSD/voxilaprevir SSD tablets with crystalline voxilaprevir Form VIII and Form X drug substances.

[3] = closed, 1 g desiccant, 25° C./60% RH, 12 weeks
[4] = closed, 1 g desiccant, 25° C./60% RH, 24 weeks
[5] = closed, 1 g desiccant, 40° C./75% RH, 4 weeks
[6] = closed, 1 g desiccant, 40° C./75% RH, 12 weeks
[7] = closed, 1 g desiccant, 40° C./75% RH, 24 weeks
[8] = closed, 3 g desiccant, 25° C./60% RH, 12 weeks
[9] = closed, 3 g desiccant, 25° C./60% RH, 24 weeks
[10] = closed, 3 g desiccant, 40° C./75% RH, 4 weeks
[11] = closed, 3 g desiccant, 40° C./75% RH, 12 weeks
[12] = closed, 3 g desiccant, 40° C./75% RH, 24 weeks
[13] = closed, no desiccant, 25° C./60% RH, 12 weeks
[14] = closed, no desiccant, 25° C./60% RH, 24 weeks
[15] = closed, no desiccant, 40° C./75% RH, 4 weeks
[16] = closed, no desiccant, 40° C./75% RH, 12 weeks
[17] = closed, no desiccant, 40° C./75% RH, 24 weeks
[18] = desiccant study, Initial, time 0
[19] = open (no desiccant), 40° C./75% RH, 4 weeks
[20] = tablets from SSDs with copovidone peroxides 544 ppm (VEL SSD), 655 ppm (VOX SSD), Initial, time 0
[21] = tablets from SSDs with copovidone peroxides 544 ppm (VEL SSD), 655 ppm (VOX SSD), closed, 1 g desiccant, 25° C./60% RH, 12 weeks
[22] = tablets from SSDs with copovidone peroxides 544 ppm (VEL SSD), 655 ppm (VOX SSD), closed, 1 g desiccant, 40° C./75% RH, 4 weeks

For `CC(C)OC(=O)C(C)N[P@](=O)(OC[C@H]1O[C@@H](n2ccc(=O)[nH]c2=O)[C@](C)(F)[C@@H]1O)Oc1ccccc1` (stereo in doubt) [sofosbuvir, (S)-isopropyl 2-(((S)-(((2R,3R,4R,5R)-5-(2,4-dioxo-3,4-dihydropyrimidin-1(2H)-yl)-4-fluoro-3-hydroxy-4-methyltetrahydrofuran-2-yl)methoxy)(phenoxy)phosphoryl)amino)propanoate], the total impurities/degradation products ([1]; desiccant study (0, 1, 3 g), all conditions, 6 months) was 0.0%, the “I/D (%)” value [1, 3] was 0.0% and the “LS (%)” value [1, 3] was 99.3%. The “I/D (%)” value [1, 4] was 0.0%, the “LS (%)” value [1, 4] was 100.4% and the “I/D (%)” value [1, 5] was 0.0%. For the same compound, the “LS (%)” value [1, 5] was 100.0%, the “I/D (%)” value [1, 6] was 0.0% and the “LS (%)” value [1, 6] was 99.4%. For the same compound, the “I/D (%)” value [1, 7] was 0.0%, the “LS (%)” value [1, 7] was 101.7% and the “I/D (%)” value [1, 8] was 0.0%. For the same compound, the “LS (%)” value [1, 8] was 100.3%, the “I/D (%)” value [1, 9] was 0.0% and the “LS (%)” value [1, 9] was 101.6%. For the same compound, the “I/D (%)” value [1, 10] was 0.0%, the “LS (%)” value [1, 10] was 100.0% and the “I/D (%)” value [1, 11] was 0.0%. The “LS (%)” value [1, 11] was 99.9%, the “I/D (%)” value [1, 12] was 0.0% and the “LS (%)” value [1, 12] was 102.3%. For the same compound, the “I/D (%)” value [1, 13] was 0.0%, the “LS (%)” value [1, 13] was 99.3% and the “I/D (%)” value [1, 14] was 0.0%. The “LS (%)” value [1, 14] was 100.2%, the “I/D (%)” value [1, 15] was 0.0% and the “LS (%)” value [1, 15] was 101.4%. For the same compound, the “I/D (%)” value [1, 16] was 0.0%, the “LS (%)” value [1, 16] was 100.3% and the “I/D (%)” value [1, 17] was 0.0%. The “LS (%)” value [1, 17] was 100.4%, the “I/D (%)” value [1, 18] was 0.0% and the “LS (%)” value [1, 18] was 102.1%. The total impurities/degradation products ([2]; SSD potency study, tablet Lots A-D, all conditions) was 0.0%, the LS ([2]; Initial) was 100.5% and the “Total Imp./Deg.” value ([2]; Initial) was 0.0%. For the same compound, the LS [2, 19] was 101.2%, the “Total Imp./Deg.” value [2, 19] was 0.0% and the “LS (%)” value ([2]; tablets Lot A (super-potent VEL SSD, super-potent VOX SSD), Initial, time 0) was 100.1%. The “LS (%)” value ([2]; tablets Lot A (super-potent VEL SSD, super-potent VOX SSD), closed, 1 g desiccant, 25° C./60% RH, 12 weeks) was 99.0%, the “LS (%)” value ([2]; tablets Lot A (super-potent VEL SSD, super-potent VOX SSD), closed, 1 g desiccant, 40° C./75% RH, 4 weeks) was 99.9% and the “LS (%)” value ([2]; tablets Lot A (super-potent VEL SSD, super-potent VOX SSD), closed, 1 g desiccant, 40° C./75% RH, 12 weeks) was 99.8%. The “LS (%)” value ([2]; tablets Lot A (super-potent VEL SSD, super-potent VOX SSD), open, without cap, 40° C./75% RH, 4 weeks) was 100.3%, the “LS (%)” value ([2]; tablets Lot B (sub-potent VEL SSD, sub-potent VOX SSD), Initial, time 0) was 99.9% and the “LS (%)” value ([2]; tablets Lot B (sub-potent VEL SSD, sub-potent VOX SSD), closed, 1 g desiccant, 25° C./60% RH, 12 weeks) was 99.4%. For the same compound, the “LS (%)” value ([2]; tablets Lot B (sub-potent VEL SSD, sub-potent VOX SSD), closed, 1 g desiccant, 40° C./75% RH, 4 weeks) was 99.8%, the “LS (%)” value ([2]; tablets Lot B (sub-potent VEL SSD, sub-potent VOX SSD), closed, 1 g desiccant, 40° C./75% RH, 12 weeks) was 98.7% and the “LS (%)” value ([2]; tablets Lot B (sub-potent VEL SSD, sub-potent VOX SSD), open, without cap, 40° C./75% RH, 4 weeks) was 100.1%. The “LS (%)” value ([2]; tablets Lot C (sub-potent VEL SSD, super-potent VOX SSD), Initial, time 0) was 99.5%, the “LS (%)” value ([2]; tablets Lot C (sub-potent VEL SSD, super-potent VOX SSD), closed, 1 g desiccant, 25° C./60% RH, 12 weeks) was 99.6% and the “LS (%)” value ([2]; tablets Lot C (sub-potent VEL SSD, super-potent VOX SSD), closed, 1 g desiccant, 40° C./75% RH, 4 weeks) was 99.6%. The “LS (%)” value ([2]; tablets Lot C (sub-potent VEL SSD, super-potent VOX SSD), closed, 1 g desiccant, 40° C./75% RH, 12 weeks) was 99.1%, the “LS (%)” value ([2]; tablets Lot C (sub-potent VEL SSD, super-potent VOX SSD), open, without cap, 40° C./75% RH, 4 weeks) was 99.4% and the “LS (%)” value ([2]; tablets Lot D (super-potent VEL SSD, sub-potent VOX SSD), Initial, time 0) was 100.0%. For the same compound, the “LS (%)” value ([2]; tablets Lot D (super-potent VEL SSD, sub-potent VOX SSD), closed, 1 g desiccant, 25° C./60% RH, 12 weeks) was 99.5%, the “LS (%)” value ([2]; tablets Lot D (super-potent VEL SSD, sub-potent VOX SSD), closed, 1 g desiccant, 40° C./75% RH, 4 weeks) was 100.1% and the “LS (%)” value ([2]; tablets Lot D (super-potent VEL SSD, sub-potent VOX SSD), closed, 1 g desiccant, 40° C./75% RH, 12 weeks) was 98.9%. The “LS (%)” value ([2]; tablets Lot D (super-potent VEL SSD, sub-potent VOX SSD), open, without cap, 40° C./75% RH, 4 weeks) was 99.8%, the total impurities/degradation products ([2]; tablets from SSDs with copovidone 544 ppm (VEL SSD) and 655 ppm (VOX SSD) peroxides) was 0.0% and the “LS (%)” value [2, 20] was 100.0%. For the same compound, the “Total Imp./Deg. (%)” value [2, 20] was 0.0%, the “LS (%)” value [2, 21] was 99.3% and the “Total Imp./Deg. (%)” value [2, 21] was 0.0%. For the same compound, the “LS (%)” value [2, 22] was 99.3% and the “Total Imp./Deg. (%)” value [2, 22] was 0.0%.

Reference: US11338007B2, “Combination formulation of three antiviral compounds” (priority 2016, dated 2022)
